US10611799B2, “Anti-endotoxin polypeptide” (priority 2017, dated 2020)
Entries after “also recorded” stand apart in the source; their conditions may differ. No end group written: not given here.

Columns and labels:
Acinetobacter sp. = assay: Antibacterial activity, broth microdilution, Acinetobacter sp.; format: cell-based
Procedure: (§1) The antibacterial activities were determined by the standard broth microdilution method of National Committee for Clinical Laboratory Standards with the MH and LYM broth. MH or LYM broth with 50, 100, 200, or 300 mM NaCl (containing 5.4 mM KCl, 5.6 mM Na2HPO4, 0.5 mM MgSO4, and 1.0 mM sodium citrate, 0.4 mg of ZnCl2, 2.0 mg of FeCl3.6H2O, 0.1 mg of CuSO4.5H2O, 0.1 mg of MnSO4.H2O, 0.1 mg of Na2B4O7.10H2O, 700 mg of amino acid mixtures without tryptophan (Clontech), and 20 mg of L-Tryptophan, 2% vitamin mixture (100×, Sigma) and glucose at final concentration of 2%) were used to serially dilute the anti-endotoxin polypeptide of the present invention to obtain anti-endotoxin polypeptide solutions with a concentration ranging from 3,200 to 100 μg/mL.
(§2) 1 μL of peptide solutions were mixed with 99 μL inoculums (5×10^5 CFU/mL) in polypropylene 96-well plates, respectively. The turbidity at OD600 nm was determined by ELISA plate reader (Thermo Max, Molecular Devices, Sunnyvale, Calif.). The absorbance of culture medium and inoculum without peptides were used as the negative and positive control, respectively. […] All peptides were tested in triplicate. […] KR12AGPKR6 peptide was very effective against bacteria in LYM broth condition (MIC=about 2 μg/mL).

[1] = tested on: E. coli O26:B6 LPS-induced endotoxemia; assay: Mouse model of endotoxemia; format: in vivo, C57BL/6 mice; settings: 18 mg/kg LPS plus 10 mg/kg peptide i.p.
Procedure: 5-week old male C57BL/6 mice were purchased from National Laboratory Animal Center (Taiwan). Mice were divided into three groups (five in each group) with intraperitoneal (i.p.) injection of (a) 18 mg/kg of body weight E. coli O26:B6 LPS, (b) 18 mg/kg body weight LPS plus 10 mg/kg peptide, and (c) no treatment. Blood was collected via tail vein 1.5 hours after injection. Whole blood was centrifuged at 3,000 rpm at 4° C. for 10 minutes. After 24 hours, all mice were sacrificed. The lungs were removed and fixed in 4% formaldehyde buffer, and deparaffinized in UltraClear buffer (J. K. Baker) and graded ethanol. Histology of lung sections was performed by hematoxylin and eosin (H&E) staining. Tissue images were captured using light microscope (Eclipse E400, Nikon) with digital microscopy camera (AxioCam ICc 5, ZEISS).

[2] = LPS aggregation, dynamic light scattering; settings: peptide 8 and 16 μg/mL, LPS 25 μM
Procedure: The LPS molecule were dissolved in chloroform:methanol (2:1) then the stock solution was sonicated at 40° C. for 20 minutes and then kept at 4° C. overnight. The stock solution were diluted to 25 μM by using 20 mM sodium phosphate buffer with 150 mM sodium chloride and then at 4° C. overnight for use. Peptide concentration was diluted to 8 or 16 μg/mL. After the LPS solution was interacted with the peptide solution, the particle size and distribution analysis was measured by dynamic light scattering in Malvern Zetasizer ZS (Malvern, UK).

[3] = tested on: TNF-α release in J744A.1 cells; assay: Inhibition of LPS-induced TNF-α release (ELISA); format: cell-based; settings: LPS 150 ng/mL, peptide 2-32 μg/mL, 24 hours
Procedure: (§3) J744A.1 cells (3×10^5 cells) were seeded in a 24-well plate and incubated for 24 hours. Cells were washed by PBS and LPS (E. coli 026:B6 (SIGMA, 150 ng/mL)) and the anti-endotoxin polypeptide of the present invention (2-32 μg/mL) were added to the wells. After 24 hours treatment, culture supernatant was harvested and centrifuged at 1,000 rpm for 10 minutes. 50 μL of culture supernatant was mixed with 50 μL Griess reagent (SIGMA) in a 96-well plate and incubated at room temperature for 10 minutes. The absorbance at 540 nm was measured and the NO concentration was calculated. Additionally, the concentration of TNF-α in the culture supernatant was evaluated using ELISA kits (eBiosciences).

[4] = POPC/LPS LUVs aggregation, dynamic light scattering; settings: peptide 8 and 16 μg/mL
[5] = tested on: NO production in J744A.1 cells; assay: Inhibition of LPS-induced NO production (Griess reagent); format: cell-based; settings: LPS 150 ng/mL, peptide 2-32 μg/mL, 24 hours
Procedure: as §3

[6] = tested on: LPS (Control Standard Endotoxin); assay: Binding and neutralization of LPS, Limulus Amebocyte Lysate (LAL) assay; format: biochemical; settings: peptide 8-128 μg/mL, CSE 5EU
Procedure: The abilities of the anti-endotoxin polypeptides to bind and neutralize LPS were assessed using Limulus Amebocyte Lysate (LAL) assay (Cape Cod Inc, East Falmouth, Mass., USA). 25 μL of different peptide concentration (128, 64, 32, 16, and 8 μg/mL) were mixed with 25 μL CSE (Control Standard Endotoxin) (5EU) in a 96-well plate, and 50 μL of Pyrochrome® reagent was added to wells immediately. The absorbance at 405 nm was measured by microplate reader at 37° C. for 25 minutes.

[7] = Peptide-induced calcein leakage of POPC/POPG LUVs
Procedure: (§4) In this embodiment, the large unilamellar vesicles (LUVs) of POPC/LPS (POPC:LPS=12.5:1 mol/mol), POPC/cholesterol (POPC:cholesterol=2:1 mol/mol), and POPC:POPG (POPC:POPG=3:1 mol/mol) were prepared by the extrusion method with Avanti small-volume extrusion apparatus (Avanti Polar Lipid). Calcein-filed LUVs were prepared by calcein-containing buffer (70 mM calcein and 10 mM Tris at pH 7.4). Peptide-induced calcein leakages were measured by Perkin-Elmer luminescence spectrofluorimeter at excitation and emission wavelengths of 496 and 515 nm, respectively. Leakage is expressed as a percentage relative to the total amount of dye released by addition of 100 mg/mL of Triton X-100, which represented 100% leakage (the maximum fluorescence intensity).
(§5) The degree of leakage induced by various concentrations of polypeptides was estimated by: % leakage=(F−F0)/(Fr−F0)×100%, wherein the F0 is the initial fluorescence intensity observed without peptide, and Fr is the fluorescence intensity of 100% leakage.

Cytotoxicity, MTT assay = format: cell-based; settings: mouse, J744A.1 cells, 64 μg/mL, read-out: survival rate
Procedure: In this embodiment, the cytotoxicity was evaluated by MTT assay. J744A.1 cells were seeded in a 96-well plate with 10^4 cells/100 μL/well and incubated for 24 hours. After removing the medium, 100 μL of fresh medium containing anti-endotoxin polypeptide (2 to 64 μg/mL) was added to the wells. After 24 hours incubation, the fresh medium with 0.5 mg/mL MTT was added and incubated for 3 hours. After the medium/MTT was removed, DMSO was added at 100 μL for dissolving the formazan crystal. Cell survival rate was calculated by measuring the absorbance at 450 nm using Multi-labeled Microplate Reader (VICTOR 3).

[8] = Peptide-induced calcein leakage of POPC/LPS LUVs
Procedure: as §4, §5

[9] = tested on: gram-positive and negative bacteria; assay: Antibacterial activity and salt resistance, broth microdilution (MIC); format: cell-based
Procedure: as §1, §2

[10] = relative to Triton X-100 = 100%

Substance	antibacterial effectiveness compared to other bacteria strain (Acinetobacter sp.)	level of TNF-α in blood ([1]; blood 1.5 hours after injection)	proliferation of alveolar epithelial cells and pulmonary hemorrhage (lung histology) ([1]; lungs after 24 hours, H&E)	LPS aggregation and particle size [2]	inhibition of TNF-α release [3]	POPC/LPS LUVs aggregation and particle size [4]	inhibition of NO production [5]	LPS-neutralizing activity (LAL assay) [6]	calcein leaking activity [7]	calcein leakage [7, 10] [%]	viability at 24 h, 64 µg/mL (Cytotoxicity, MTT assay) [%]	calcein leaking activity [8]	calcein leakage [8, 10]	minimum inhibitory concentration (MIC) ([9]; high salt conditions) [µg/mL]	antibacterial activity ([9]; MH or LYM broth)	antibacterial activity ([9]; 300 mM salt condition)	antibacterial activity ([9]; 200 mM NaCl)	antibacterial activity ([9]; low NaCl condition)
Ac-KRIVQRIKDFLRAGPRRWWRW-NH2 (N-terminus and C-terminus assumed) [KR12AGPWR6]	more effective	significantly lower; also recorded: suppress	significantly decreased; also recorded: improve	promoted	inhibited	promoted	inhibit concentration-dependently	better LPS-neutralizing activity; also recorded: neutralize downstream reaction dose-dependently	show leaking activities; also recorded: does-dependent calcein leaking activities	~70	~70	show leaking activities; also recorded: does-dependent calcein leaking activities	about 80%	2 to 4	–	–	–	–
KRIVQRAGPIKDFLR (The anti-endotoxin polypeptide synthesized from the laboratory) [KR15AGP]	–	–	–	did not aggregate LPS and change particle size	–	–	–	only small effects	–	–	–	–	–	–	did not show any activity	–	–	–
KRIVQRIKDFLRAGPIKDFLR [KR12AGPKR6]	more effective	–	–	did not aggregate LPS and change particle size	–	–	–	only small effects	show leaking activities; also recorded: does-dependent calcein leaking activities	–	–	show leaking activities; also recorded: does-dependent calcein leaking activities	–	–	–	inactive totally	–	–
KRIVQRIKDFLRAGPRRLVRI (The anti-endotoxin polypeptide synthesized from the laboratory) [KR12AGPVR6]	more effective	–	–	did not aggregate LPS and change particle size	–	–	–	only small effects	show leaking activities; also recorded: does-dependent calcein leaking activities	–	–	show leaking activities; also recorded: does-dependent calcein leaking activities	–	–	–	–	lost its activities	high activities
